The values below come from patent publication US20120316234A1, “ANTHRAQUINONE -BASED COMPOUND, THE SYNTHESIS PROCESSES AND THE APPLICATION THEREOF” (NATIONAL DEFENSE MEDICAL CENTER, priority 2011, published 2012).

As a reminder, the melting point is the temperature, or range, at which the solid turns liquid.

The subject of data set [1] is telomerase (total cell lysates of lung cancer cell line H1299). Put plainly: Telomeric repeat amplification protocol (TRAP) telomerase activity analysis. It counts as biochemical. To be noted: 100 μM of compound; telomerase source H1299 cell lysate; gel electrophoresis, SYBER Green staining. How it is done: Telomerase elongated product (CX primer: [NT]) was replicated by PCR. […] Three different concentrations of compounds were performed.

With `O=C(CCl)Nc1cccc2c1C(=O)c1cccc(NC(=O)CCl)c1C2=O` [Compound 11, 1,5-Bis(chloroacetamido)anthraquinone], the melting point lay in the range of 349 to 350 °C.
The same measure, in the same setting: under `O=C(CCl)Nc1ccc2c(c1)C(=O)c1ccc(NC(=O)CCl)cc1C2=O` stands 323 to 324 °C.
In turn, `COC(=O)CNCCC(=O)Nc1cccc2c1C(=O)c1cccc(NC(=O)CCNCC(=O)OC)c1C2=O` [Compound 21] yielded a melting point of 150 to 151 °C. Further, the “telomerase inhibition activity (TRAP analysis, FIG. 5)” value in data set [1] is reported as “have telomerase inhibition activity”.
With `COC(=O)CNCCC(=O)Nc1ccc(NC(=O)CCNCC(=O)OC)c2c1C(=O)c1ccccc1C2=O` [Compound 10], the melting point is 155 to 156 °C. Besides, the “telomerase inhibition activity (TRAP analysis, FIG. 5)” value in data set [1] is recorded as “have telomerase inhibition activity”.
